4 compounds from US20110207926A1, “NOVEL DIHYDROTRIAZINE DERIVATIVE” (HAMARI CHEMICALS, LTD., priority 2008, published 2011) can be followed below.

Each structure is given as a SMILES string. Like-named read-outs stand apart in the source and are kept apart here.

The test system of one series is E. coli ATCC 25922. Put plainly: Bactericidal activity test (MBC measurement). It is filed as cell-based, Escherichia coli. Conditions: Escherichia coli, read-out: MBC. How it is done:
(§1) Each strain was cultured in Trypticase Soy agar medium for 18 to 20 hr, suspended in 0.1% peptone saline, and prepared to OD 600 nm, 1.0 McFarland. The suspension was further diluted with 0.1% peptone saline to give a test bacteria solution (targeted value; 2×10^7 CFU/mL).
(§2) At 0.5, 1 and 3 min from the start of the reaction, a part of the reaction mixture was sampled and mixed with an equal amount of a neutralizing agent (10% Tween 80, 3% lecithin/aqueous solution) to terminate the bactericidal reaction. The reaction mixture was inoculated to a 96 well microplate dispensed with 180 μL of Tripticase Soy liquid medium in advance, and statically cultured at 37° C. for 20 to 24 hr. Thereafter, the presence or absence of growth was visually evaluated, and the minimum concentration at which growth was not observed was taken as the minimal bactericidal concentration (MBC value) of each action time. The numerical values in the Tables show MBC, the unit is μg/mL, S. aureus means Staphylococcus aureus, MRSA means methicillin-resistant Staphylococcus aureus, E. coli means Escherichia coli, and P. aeruginosa means Pseudomonas aeruginosa.

The test system of the next series is MRSA ATCC 33591. The series can be described thus: Bactericidal activity test (MBC measurement). It is filed as cell-based, methicillin-resistant Staphylococcus aureus. Particulars: Staphylococcus aureus, read-out: MBC. On the procedure: as §1, §2
Series [1] in a line: Skin sensitivity test, LLNA-BrdU method (lymph node weight). Particulars: 5 w/v % in acetone/olive oil 4:1, transdermal to auricle once a day for 3 days, mice. It is filed as in vivo. How it is done:
For application of an external bactericidal/disinfectant agent to the skin, the sensitivity (allergenicity) is desirably as small as possible. […] The sensitivity was evaluated by a Local lymph node assay (LLNA) method using Bromodeoxyuridine (BrdU). In this test, measurement of the amount of BrdU uptaken by the lymph node using an ELISA kit was not performed, and the evaluation was based solely on the weight increase of the lymph node.
8-Week-old female CBA/JN Crlj mice were grouped (3 per group) according to the adequate strafication method based on the body weight (about 20 g) on the first day of administration. A test substance was prepared to 5 w/v % for each test substance by using a mixed solution of acetone and olive oil (v/v=4:1, A00). This was repeatedly administered transdermally to the auricle of the mice at 25 μL/auricle (50 for both auricles) once a day for 3 days. Two days after the final administration, BrdU 10 mg/mL (0.5 mL/mouse) was intraperitoneally administered. Three days after the final transdermal administration (next day of BrdU administration), carbon dioxide was given by inhalation to a comfortable death, and the auricle lymph node was isolated and the weight thereof was measured.

The next series deals with P. aeruginosa PAO-1. The series can be described thus: Bactericidal activity test (MBC measurement). It is filed as cell-based, Pseudomonas aeruginosa. Conditions: Pseudomonas aeruginosa, read-out: MBC. On the procedure:
as §1, §2

A further series deals with P. aeruginosa ATCC 27853. The series can be described thus: Bactericidal activity test (MBC measurement). The series is classed as cell-based, Pseudomonas aeruginosa. Conditions: Pseudomonas aeruginosa, read-out: MBC. On the procedure: as §1, §2
A further series deals with S. aureus ATCC 6538. The series can be described thus: Bactericidal activity test (MBC measurement). The series is classed as cell-based, Staphylococcus aureus. Conditions: Staphylococcus aureus, read-out: MBC. On the procedure: as §1, §2
Series [2] is described as follows: Water solubility test (Japanese Pharmacopoeia solubility test method). Particulars: 20±5° C., dissolution in 30 min. It is filed as physicochemical. How it is done: According to the Japanese Pharmacopoeia solubility test method, the compounds of Examples 1 and 7 of the present invention and the corresponding N-methyl unsubstituted compounds were examined for water solubility. To be specific, a test substance was powderized, placed in water and the mixture was vigorously shaken for 30 sec every 5 min at 20±5° C. The solubility was evaluated based on the degree of dissolution in 30 min by reference to the following Table 9.

Setting [3] is: ATCC25922, 0.5 min, E. coli ATCC 25922, action time 0.5 min.
Where [4] appears, read: 0.5 min, MRSA ATCC 33591, action time 0.5 min.
[5] abbreviates: PAO1, 0.5 min, P. aeruginosa PAO-1, action time 0.5 min.
[6] abbreviates: ATCC27853, 0.5 min, P. aeruginosa ATCC 27853, action time 0.5 min.
Setting [7] is: ATCC6538, 0.5 min, S. aureus ATCC 6538, action time 0.5 min.

For `CCCCCCCCNC1=NC(C)(C)NC(N(C)Cc2ccccc2)=N1` [Example 5, N^4-octyl-1,6-dihydro-6,6-dimethyl-N^2-benzyl-N^2-methyl-1,3,5-triazine-2,4-diamine acetate], the MBC with E. coli ATCC 25922 (setting [3]) stood at 25 µg/mL; in the series on MRSA ATCC 33591 (setting [4]), 50 µg/mL; in the series on P. aeruginosa PAO-1 (setting [5]), 25 µg/mL; with P. aeruginosa ATCC 27853 (setting [6]), 12.5 µg/mL; with S. aureus ATCC 6538 (setting [7]) it was 200 µg/mL. The “SI value (Stimulation index, lymph node weight ratio to solvent group)” value in series [1] came to 0.9.
In the case of `CCCCCCCCN(C)C1=NC(C)(C)NC(NCc2ccc(C)cc2)=N1` [Example 7, N^4-octyl-N^4-methyl-1,6-dihydro-6,6-dimethyl-N^2-(4-methylbenzyl)-1,3,5-triazine-2,4-diamine acetate], the “SI value (Stimulation index, lymph node weight ratio to solvent group)” value in series [1] was 2.6. The “water (mL) to dissolve 1 g” value in series [2] came out at 0.9 mL. Also, in series [2] (criteria of Table 9), the “evaluation (water solubility)” value is “very soluble (less than 1 mL)”.
As to `CCCCCCCCN(C)C(=N)/N=C(\N)NCc1ccc(Cl)cc1.Cl` [Example 27, N^5-octyl-N^5-methyl-N^1-(4-chlorobenzyl)biguanide hydrochloride], the MBC in the series on E. coli ATCC 25922 (setting [3]) is 25 µg/mL; in the series with E. coli ATCC 25922 (ATCC25922, 1 min, E. coli ATCC 25922, action time 1 min) it was 6.25 µg/mL; in the series on E. coli ATCC 25922 (ATCC25922, 0.05 h, E. coli ATCC 25922, action time 3 min), 6.25 µg/mL; with MRSA ATCC 33591 (setting [4]), 50 µg/mL; with MRSA ATCC 33591 (1 min, MRSA ATCC 33591, action time 1 min), 25 µg/mL; with MRSA ATCC 33591 (0.05 h, MRSA ATCC 33591, action time 3 min), 25 µg/mL. In addition, the MBC in the series with P. aeruginosa PAO-1 (setting [5]) was determined as 12.5 µg/mL; in the series with P. aeruginosa PAO-1 (PAO1, 1 min, P. aeruginosa PAO-1, action time 1 min) it was 12.5 µg/mL; in the series with P. aeruginosa PAO-1 (PAO1, 0.05 h, P. aeruginosa PAO-1, action time 3 min) it was 12.5 µg/mL; in the series on P. aeruginosa ATCC 27853 (setting [6]), 12.5 µg/mL; in the series with P. aeruginosa ATCC 27853 (ATCC27853, 1 min, P. aeruginosa ATCC 27853, action time 1 min), 12.5 µg/mL; in the series with P. aeruginosa ATCC 27853 (ATCC27853, 0.05 h, P. aeruginosa ATCC 27853, action time 3 min), 6.25 µg/mL. Further, the MBC in the series on S. aureus ATCC 6538 (setting [7]) was found to be 50 µg/mL; in the series on S. aureus ATCC 6538 (ATCC6538, 1 min, S. aureus ATCC 6538, action time 1 min), 25 µg/mL; in the series on S. aureus ATCC 6538 (ATCC6538, 0.05 h, S. aureus ATCC 6538, action time 3 min), 25 µg/mL. Also, the “SI value (Stimulation index, lymph node weight ratio to solvent group)” value in series [1] stood at 2.4.
Turning to `CCCCCCCCNC1=NC(C)(C)N=C(NCc2ccc(C)cc2)N1` [Ref. Ex. 5, 4-octylamino-1,6-dihydro-6,6-dimethyl-2-(4-methylbenzylamino-1,3,5-triazine gluconate, reference compound], the “SI value (Stimulation index, lymph node weight ratio to solvent group)” value in series [1] is 4.4.
